Assay results published in US20110262561A1, “Protoilludance Norsesquiterpenoid Esters and Uses Thereof” (NATIONAL RESEARCH INSTITUTE OF CHINESE MEDICINE, priority 2010, published 2011).
Read-outs that look alike come from different tables or passages of the source.

How the values were obtained:
MCF-7 = assay: Alamar blue cytotoxicity assay on MCF-7 cancer cells; assay type: cell-based; settings: for IC50: Homo sapiens, MCF7, alamar blue, 48 hours treatment
Experimental: (§1) The endothelial cells (human endothelial-like cells, Eahy926) and 4 cancer cell lines (MCF-7, H460, HT-29, and CEM) were derived from the American Type Culture Collection (ATCC) and were maintained in DMEM or RPMI medium (Life Technologies) supplemented with 2 mM L-glutamine and 10% heat-inactivated fetal bovine serum (FBS) (Life Technologies) under standard culture conditions. The cell viability and cell number were determined by the Trypan Blue dye-exclusion method.
(§2) The alamar blue (AB) assay (dye purchased from Biosource International, Nivelles, Belgium) was used to estimate cell viability in accordance with procedures previously described by Fatokun et al (Bone (2006) 39, 542-551). Briefly, cells were treated with various concentration of each of the test compounds (e.g., compounds of example 1.1) at 37° C. for 48 hours, and the medium in each well was then aspirated at the end of the treatment, 100 μL of fresh medium containing 10% v/v AB was then added to the control and the treated wells, respectively. Plates were then incubated at 37° C. for 6 hour prior to measuring the absorbance at 570 nm and at 600 nm wavelengths using a spectrophotometric plate reader (DYNEX Technologies, USA). Experimental data were normalized to control values. CH-205-A, K, L, O, and -P were effective on MCF-7 cells; CH-205-A, H, K, L, O, and -P were effective on H460 cells; CH-205-A and -P were effective on HT-29 cells and CH-205-A, H, N, and -O were effective on CEM cells.

HT-29 = assay: Alamar blue cytotoxicity assay on HT-29 cancer cells; assay type: cell-based; settings: for IC50: Homo sapiens, HT-29, alamar blue, 48 hours treatment
Experimental: as §1, §2

H460 = assay: Alamar blue cytotoxicity assay on H460 cancer cells; assay type: cell-based, human; settings: for IC50: Homo sapiens, NCI-H460, alamar blue, 48 hours treatment
Experimental: as §1, §2

CEM = assay: Alamar blue cytotoxicity assay on CEM cancer cells; assay type: cell-based; settings: for IC50: Homo sapiens, CCRF-CEM, alamar blue, 48 hours treatment
Experimental: as §1, §2

endothelial cells (ECs) = assay: In vitro antiangiogenesis on ECs (inhibition of endothelial cell growth); assay type: cell-based; settings: Homo sapiens, read-out: In vitro antiangiogenesis IC50
Experimental: as §1
(§3) Anti-angiogenic effects of CH-205 compounds were estimated by their inhibition on the growth of endothelial cells. The toxicity of CH-205 compounds to endothelial cells was estimated using MTT (3-(4,5-dimethy;thiazol-2-yl)-2,5-diphenyltetrazolium bromide, a tetrazole) assay. MTT assay is a standard colorimetric assay (an assay which measures changes in color) for measuring the activity of enzymes that reduce yellow MTT to formazan, giving a purple color. It is also used to determine cytotoxity of potential medicinal agents and other toxic materials, since those agents would result in cell toxicity and therefore metabolic dysfunction and therefore decreased performance in the assay. The cytotoxity concentrations of the CH-205 compounds measured in MTT test are all over 20 μM (Table 2), however, their effects on angiogenesis inhibition are in nM range, indicating the safety of these compounds (Table 3).

[1] = system: endothelial cells (human endothelial-like cells, Eahy926); assay: MTT cell viability of endothelial cells (ECs); assay type: cell-based
Experimental: as §1, §3

[2] = MTT cell viability of endothelial cells (ECs); assay type: cell-based, human; settings: human, column head prints none, read-out: Cell viability IC50 (cytotoxicity concentration on ECs)
Experimental: as §1, §3

[3] = system: H460 human lung cancer tumor xenograft; settings: for tumor volume after sacrifice: control 1.743±0.129
Experimental: The established, transplantable, 5×10^6/200 μL H460 tumor cells were prepared in RPMI medium. The 200 μL of cell suspension was injected subcutaneously into right flank area of each mouse. The mice were randomized into vehicle control and drug treatment groups of four-six animals each when xenografts were palpable with a tumor size of 40 mm^3. Adminitration of the lead compounds or vehicle began on day 15 when the median tumor size was ranged from 75 to 80 mm^3. Tumor-bearing animals were randomized (five per group) prior to treatment. The candidate test drugs were intraperitoneal (IP) administered into with optimal dosage once every other day (48 hr apart) for 7 or 10 times. […] Solvent vehicle and cisplatin (5 mg/kg) were used to administrate, respectively, as io negative and positive controls. Two days after last administration of tested compounds, the animals were sacrificed. The tumor dimensions were measured every other day using a linear caliper and tumor volume is calculated using the equation V (mm^3)=a×b^2/2, where a is the largest diameter and b is the smallest diameter. Body weights are also recorded once weekly. Tumor is growth inhibition ratio (TGI) is calculated using the equation TGI=(1−(the mean treated tumor mass/mean control tumor mass))*100%.

SMILES	effective on MCF-7 cells (MCF-7)	IC50 (MCF-7) [µM]	IC50 (HT-29) [µM]	effective on H460 cells (H460)	IC50 (H460) [µM]	IC50 (CEM) [µM]	Cell viability (% of control) 1 μM [1]	Cell viability (% of control) 10 μM [1]	Cell viability (% of control) 50 μM [1]	Cell viability (% of control) 100 μM [1]	Cell viability (% of control) 250 μM [1]	Cell viability (% of control) 500 μM [1]	IC50 ([2]; Eahy926 endothelial-like cells) [µM]	IC50 (endothelial cells (ECs); ECs) [µM]	other results
COc1cc(O)c(C(=O)O[C@@H]2C[C@@]3(C)C2=C(C=O)C=C2CC(C)(C)C[C@@H]23)c(C)c1Cl [CH-205-A]	effective	4.8	4.6	effective	5.5	5.8	101.4 % of control	87.9 % of control	17.7 % of control	8.4 % of control	7.1 % of control	7.9 % of control	24.1		effective on HT-29 cells (HT-29): effective; effective on CEM cells (CEM): effective; IC50 (endothelial cells (ECs)): 0.0403 µM
COc1cc(O)c(C(=O)O[C@@H]2C[C@]3(C)C4[C@@H](O)C(C)(C)C[C@@]4(O)C=C(C=O)[C@]23O)c(C)c1Cl (stereo partly drawn) [CH-205-E, (2R,2a6,4aR,7R,7bR)-3-formyl-2,2a,4a,5,6,7,7a,7b-octahydro-2a,4a,7-trihydroxy-6,6,7b-trimethyl-1H-cyclobuta[e]inden-2-yl 3-chloro-6-hyd roxy-4-methoxy-2-methylbenzoate]		> 100	85.6		> 100	49.6	93.5 % of control	98.6 % of control	80.8 % of control	63.7 % of control	32.1 % of control	7.4 % of control	220	0.023	
Cc1c(Cl)c(O)cc(O)c1C(=O)O[C@@H]1C[C@]2(C)C3CC(C)(C)CC3C=C(CO)[C@]12O (stereo partly drawn) [CH-205-K, (2R,2aS,7bR)-2,2a,4a,5,6,7,7a,7b-octahydro-2a-hydroxy-3-(hydroxymethyl)-6,6,7b-trimethyl-1H-cyclobuta[e]inden-2-yl 3-chloro-4,6-dihydroxy-2-methylbenzoate]	effective	4.8	56.7	effective	4.5	28.8	103.7 % of control	122.7 % of control	6.4 % of control	6.4 % of control	7.0 % of control	8.8 % of control	21.4	0.0032	tumor volume after sacrifice ([3]; CH-205-K study, 4 mg/kg IP every other day, 7 times): 1.364±0.14 cm^3; Tumor growth inhibition ratio (TGI) ([3]; CH-205-K study, 4 mg/kg IP, 7 times): 21.74%; tumor volume after sacrifice ([3]; CH-205-K study, 20 mg/kg IP every other day, 7 times): 1.283±0.077 cm^3; Tumor growth inhibition ratio (TGI) ([3]; CH-205-K study, 20 mg/kg IP, 7 times): 26.38%; tumor volume after sacrifice ([3]; CH-205-K study, 40 mg/kg IP every other day, 7 times): 1.109±0.119 cm^3; Tumor growth inhibition ratio (TGI) ([3]; CH-205-K study, 40 mg/kg IP, 7 times): 36.38%; tumor volume after sacrifice ([3]; CH-205-K study, 80 mg/kg IP every other day, 7 times): 0.867±0.086 cm^3; Tumor growth inhibition ratio (TGI) ([3]; CH-205-K study, 80 mg/kg IP, 7 times): 50.29%; effect on body weight ([3]; mouse, in vivo): no different effect on body weight
Cc1cc(O)cc(O)c1C(=O)O[C@@H]1C[C@]2(C)C3CC(C)(C)CC3C=C(CO)[C@]12O (stereo partly drawn) [CH-205-L, (2R,2aS,7bR)-2,2a,4a,5,6,7,7a,7b-octahydro-2a-hydroxy-3-(hydroxymethyl)-6,6,7b-trimethyl-1H-cyclobuta[e]inden-2-yl 2,4-dihydroxy-6-methylbenzoate]	effective	8.3	58.4	effective	5.1	41.2	93.2 % of control	118.8 % of control	6.5 % of control	6.4 % of control	6.5 % of control	9.8 % of control	21.1	0.0011	
Cc1c(Cl)c(O)cc(O)c1C(=O)O[C@@H]1C[C@]2(C)[C@H]3CC(C)(C)C[C@@]3(O)C=C(C=O)[C@]12O [CH-205-N, (2R,2aS,4aR,7aR,7bR)-3-formyl-2,2a,4a,5,6,7,7a,7b-octahydro-2a,4a-dihydroxy-6,6,7b-trimethyl-1H-cyclobuta[e]inden-2-yl 3-chloro-4,6-dihydroxy-2-methylbenzoate]		> 100	32.1		> 100	5.5	96.5 % of control	94.1 % of control	96.5 % of control	85.1 % of control	55.2 % of control	7.6 % of control	270	0.0035	effective on CEM cells (CEM): effective
COc1cc(O)c(C(=O)O[C@@H]2C[C@]3(C)C4C(C=C(C=O)[C@]23O)CC(C)(C)[C@@H]4O)c(C)c1Cl (stereo partly drawn) [CH-205-P, (2R,2aS,7R,7bR)-3-formyl-2,2a,4a,5,6,7,7a,7b-octahydro-2a,7-dihydroxy-6,6,7b-trimethyl-1H-cyclobuta[e]inden-2-yl 3-chloro-6-hydroxy-4-methoxy-2-methylbenzoate]	effective	4.4	34.7	effective	5.7	44.6	105.1 % of control	78.5 % of control	6.8 % of control	9.8 % of control	6.8 % of control	9.6 % of control	20.7	0.0018	effective on HT-29 cells (HT-29): effective
Cc1c(Cl)c(O)cc(O)c1C(=O)O[C@@H]1C[C@]2(C)C3[C@@H](O)C(C)(C)C[C@@]3(O)C=C(C=O)[C@]12O (stereo partly drawn) [CH-205-Q, (2R,2aS,4aR,7R,7bR)-3-formyl-2,2a,4a,5,6,7,7a,7b-octahydro-2a,4a,7-trihydroxy-6,6,7b-trimethyl-1H-cyclobuta[e]inden-2-yl 3-chloro-4,6-dihydroxy-2-methyl benzoate]		> 100	> 100		> 100	> 100	104.7 % of control	98.9 % of control	105.5 % of control	108.6 % of control	100.2 % of control	74.1 % of control			IC50 (endothelial cells (ECs)): 0.001 µM; IC50 [2]: > 500 µM
N.N.[Cl][Pt][Cl] [cisplatin, reference compound]															Tumor growth inhibition ratio (TGI) ([3]; CH-205-K study, positive control 5 mg/kg (fifth value of the sentence)): 77.78%; Tumor growth inhibition ratio (TGI) ([3]; CH-205-O study, positive control 5 mg/kg): 82%
